The target in data set [1] is T1, Aurora kinase A (Homo sapiens, UniProt O14965).
T1 sequence (O14965 whole entry): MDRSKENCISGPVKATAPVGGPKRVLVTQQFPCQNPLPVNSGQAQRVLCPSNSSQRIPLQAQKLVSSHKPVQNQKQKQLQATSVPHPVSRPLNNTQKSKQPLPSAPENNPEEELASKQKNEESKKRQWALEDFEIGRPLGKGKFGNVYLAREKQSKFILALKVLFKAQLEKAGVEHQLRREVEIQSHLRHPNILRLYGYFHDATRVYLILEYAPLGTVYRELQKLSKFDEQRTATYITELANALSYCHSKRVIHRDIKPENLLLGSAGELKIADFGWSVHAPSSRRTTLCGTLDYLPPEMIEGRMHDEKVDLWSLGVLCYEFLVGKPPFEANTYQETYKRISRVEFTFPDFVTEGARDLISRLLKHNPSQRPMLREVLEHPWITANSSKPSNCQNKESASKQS
The data set can be described thus: Inhibition of aurora-A (unknown origin).

Data set [2] deals with T2, Aurora kinase B (Homo sapiens, UniProt Q96GD4). The data set can be described thus: Inhibition of aurora-B (unknown origin).
T2 sequence (Q96GD4 whole entry): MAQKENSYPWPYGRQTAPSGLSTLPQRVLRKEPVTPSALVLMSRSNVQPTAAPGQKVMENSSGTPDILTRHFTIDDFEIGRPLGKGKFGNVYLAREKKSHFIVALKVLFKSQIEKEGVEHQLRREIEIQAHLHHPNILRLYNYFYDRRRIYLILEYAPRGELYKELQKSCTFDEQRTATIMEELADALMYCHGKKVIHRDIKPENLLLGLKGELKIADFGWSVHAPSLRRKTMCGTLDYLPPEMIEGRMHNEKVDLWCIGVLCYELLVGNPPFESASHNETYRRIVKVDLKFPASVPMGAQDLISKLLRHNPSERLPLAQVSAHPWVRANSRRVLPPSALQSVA
The subject of data set [3] is MIA PaCa-2. As to the kind of experiment: Antiproliferative activity against human MIAPaCa2 cells. In kind it is functional, cell-based.
The target in data set [4] is Tyrosine-protein kinase HCK (Homo sapiens, UniProt P08631). As to the kind of experiment: Inhibition of Hck (unknown origin).
Data set [5] in a line: Solubility of the compound. The class given is physicochemical.
In data set [6] the target is Serine/threonine-protein kinase SIK1 (Homo sapiens, UniProt P57059). As to the kind of experiment: Inhibition of SIK (unknown origin).
Data set [7] deals with Proto-oncogene tyrosine-protein kinase receptor Ret (Homo sapiens, UniProt P07949). As to the kind of experiment: Inhibition of Ret (unknown origin).
Proto-oncogene tyrosine-protein kinase receptor Ret, sequence (P07949 whole entry): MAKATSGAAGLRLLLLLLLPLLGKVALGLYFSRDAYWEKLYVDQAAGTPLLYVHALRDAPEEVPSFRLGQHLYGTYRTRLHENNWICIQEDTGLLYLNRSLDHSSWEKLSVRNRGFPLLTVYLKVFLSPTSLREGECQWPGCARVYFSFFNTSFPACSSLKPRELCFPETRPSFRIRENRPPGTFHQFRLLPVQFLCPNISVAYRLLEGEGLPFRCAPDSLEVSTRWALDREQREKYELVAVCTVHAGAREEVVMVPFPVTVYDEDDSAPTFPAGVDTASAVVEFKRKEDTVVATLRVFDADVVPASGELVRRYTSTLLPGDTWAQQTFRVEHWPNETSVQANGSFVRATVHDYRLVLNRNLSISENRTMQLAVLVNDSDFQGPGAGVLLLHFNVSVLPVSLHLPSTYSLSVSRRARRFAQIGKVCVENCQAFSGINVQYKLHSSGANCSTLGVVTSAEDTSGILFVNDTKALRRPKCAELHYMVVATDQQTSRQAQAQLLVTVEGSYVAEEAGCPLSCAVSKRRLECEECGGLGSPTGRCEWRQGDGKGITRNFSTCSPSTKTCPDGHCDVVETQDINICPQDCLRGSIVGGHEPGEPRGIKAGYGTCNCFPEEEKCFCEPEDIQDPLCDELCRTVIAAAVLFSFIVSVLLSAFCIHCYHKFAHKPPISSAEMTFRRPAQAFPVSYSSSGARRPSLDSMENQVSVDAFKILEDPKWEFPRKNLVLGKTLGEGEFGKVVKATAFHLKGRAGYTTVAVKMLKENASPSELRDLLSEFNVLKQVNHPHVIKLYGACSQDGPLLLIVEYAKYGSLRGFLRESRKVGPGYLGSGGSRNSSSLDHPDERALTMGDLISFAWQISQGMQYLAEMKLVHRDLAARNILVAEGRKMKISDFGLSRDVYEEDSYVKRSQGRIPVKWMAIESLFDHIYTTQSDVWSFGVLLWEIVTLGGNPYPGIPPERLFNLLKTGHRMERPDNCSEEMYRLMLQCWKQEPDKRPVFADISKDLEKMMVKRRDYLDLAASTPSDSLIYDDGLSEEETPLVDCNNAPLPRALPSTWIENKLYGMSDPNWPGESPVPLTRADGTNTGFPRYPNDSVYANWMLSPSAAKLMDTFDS
Data set [8] deals with Activated CDC42 kinase 1 (Homo sapiens, UniProt Q07912). As to the kind of experiment: Inhibition of ACK1 (unknown origin).
Data set [9] addresses Serine/threonine-protein kinase Chk2 (Homo sapiens, UniProt O96017). As to the kind of experiment: Inhibition of CHK2 (unknown origin).
Data set [10] has as its target T3, Mitogen-activated protein kinase 13 (Homo sapiens, UniProt O15264).
T3 sequence (O15264 whole entry): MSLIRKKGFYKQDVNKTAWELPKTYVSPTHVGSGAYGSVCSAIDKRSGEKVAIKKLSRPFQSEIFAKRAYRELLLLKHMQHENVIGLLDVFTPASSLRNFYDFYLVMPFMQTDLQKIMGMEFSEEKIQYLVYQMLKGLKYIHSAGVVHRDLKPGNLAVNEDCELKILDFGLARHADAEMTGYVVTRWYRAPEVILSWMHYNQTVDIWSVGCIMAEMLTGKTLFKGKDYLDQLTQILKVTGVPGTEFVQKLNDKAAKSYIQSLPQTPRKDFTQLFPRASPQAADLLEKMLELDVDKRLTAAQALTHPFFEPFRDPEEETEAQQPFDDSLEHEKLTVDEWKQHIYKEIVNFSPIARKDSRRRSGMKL
The data set can be described thus: Inhibition of SAPK4 (unknown origin).

Data set [11] has as its target Fibroblast growth factor receptor 1 (Homo sapiens, UniProt P11362). As to the kind of experiment: Inhibition of FGFR1 (unknown origin).
The target in data set [12] is Serine/threonine-protein kinase WNK3 (Homo sapiens, UniProt Q9BYP7). The data set can be described thus: Inhibition of WNK3 (unknown origin).
In data set [13] the target is T2, Aurora kinase B. As to the kind of experiment: Inhibition of aurora-B in human MIAPaCa2 cells assessed as reduction of phosphorylation of histone H3. In kind it is cell-based, MIA PaCa-2.
Data set [14] concerns the target Vascular endothelial growth factor receptor 3 (Homo sapiens, UniProt P35916). The data set can be described thus: Inhibition of Flt4 (unknown origin).
Data set [15] has as its target LIM domain kinase 1 (Homo sapiens, UniProt P53667). As to the kind of experiment: Inhibition of LIMK1 (unknown origin).
Data set [16] deals with High affinity nerve growth factor receptor (Homo sapiens, UniProt P04629). The data set can be described thus: Inhibition of TrkA (unknown origin).
For data set [17], the system named is MIA PaCa-2. The data set can be described thus: Induction of endoreduplication human MIAPaCa2 cells assessed as accumulation of cells with >4N DNA content after 24 hrs. In kind it is functional, cell-based.
Data set [18] in a line: AUC in mouse at 5 mg/kg, po. The class given is ADME, organism-based. Also noted: dose 5 mg/kg, route oral. Particulars: plasma.
Data set [19] can be described thus: Half life in mouse at 5 mg/kg, iv. Particulars: in vivo. In kind it is ADME, organism-based. Also noted: dose 5 mg/kg, route intravenous.
For data set [20], the system named is Mus musculus. As to the kind of experiment: Inhibition of aurora-B in mouse bone marrow assessed as reduction of phosphorylation of histone H3 at 150 and 300 mg/kg, po after 2 hrs. The class given is functional.
Data set [21] can be described thus: AUC in mouse at 5 mg/kg, iv. The class given is ADME, organism-based. Also noted: dose 5 mg/kg, route intravenous. The note with it: plasma.
The target of data set [22] is Tyrosine-protein kinase ABL2 (Homo sapiens, UniProt P42684). As to the kind of experiment: Inhibition of Arg (unknown origin).
Data set [23] can be described thus: Oral bioavailability in mouse at 5 mg/kg. In kind it is ADME, organism-based. The note with it: in vivo.
Data set [24] can be described thus: Cmax in mouse at 5 mg/kg, po. Particulars: in vivo. Also noted: dose 5 mg/kg, route oral. In kind it is ADME, organism-based.
Data set [25] in a line: Cmax in mouse at 5 mg/kg, iv. In kind it is ADME, organism-based. Also noted: dose 5 mg/kg, route intravenous. Particulars: in vivo.
The nature of data set [26]: Volume of distribution at steady state in mouse at 5 mg/kg, iv. The class given is ADME, organism-based. Also noted: dose 5 mg/kg, route intravenous. Particulars: in vivo, read-out: Vdss.
Data set [27] can be described thus: Clearance in mouse at 5 mg/kg, iv. In kind it is ADME, organism-based. Also on record: dose 5 mg/kg, route intravenous. The note with it: in vivo.
The nature of data set [28]: Half life in mouse at 5 mg/kg, po. In kind it is ADME, organism-based. Also noted: dose 5 mg/kg, route oral. Particulars: in vivo.
Data set [29] addresses Tyrosine-protein kinase Blk (Homo sapiens, UniProt P51451). The data set can be described thus: Inhibition of Blk (unknown origin).
Data set [30] deals with Macrophage colony-stimulating factor 1 receptor (Homo sapiens, UniProt P07333). The data set can be described thus: Inhibition of Fms (unknown origin).
Macrophage colony-stimulating factor 1 receptor, sequence (P07333 whole entry): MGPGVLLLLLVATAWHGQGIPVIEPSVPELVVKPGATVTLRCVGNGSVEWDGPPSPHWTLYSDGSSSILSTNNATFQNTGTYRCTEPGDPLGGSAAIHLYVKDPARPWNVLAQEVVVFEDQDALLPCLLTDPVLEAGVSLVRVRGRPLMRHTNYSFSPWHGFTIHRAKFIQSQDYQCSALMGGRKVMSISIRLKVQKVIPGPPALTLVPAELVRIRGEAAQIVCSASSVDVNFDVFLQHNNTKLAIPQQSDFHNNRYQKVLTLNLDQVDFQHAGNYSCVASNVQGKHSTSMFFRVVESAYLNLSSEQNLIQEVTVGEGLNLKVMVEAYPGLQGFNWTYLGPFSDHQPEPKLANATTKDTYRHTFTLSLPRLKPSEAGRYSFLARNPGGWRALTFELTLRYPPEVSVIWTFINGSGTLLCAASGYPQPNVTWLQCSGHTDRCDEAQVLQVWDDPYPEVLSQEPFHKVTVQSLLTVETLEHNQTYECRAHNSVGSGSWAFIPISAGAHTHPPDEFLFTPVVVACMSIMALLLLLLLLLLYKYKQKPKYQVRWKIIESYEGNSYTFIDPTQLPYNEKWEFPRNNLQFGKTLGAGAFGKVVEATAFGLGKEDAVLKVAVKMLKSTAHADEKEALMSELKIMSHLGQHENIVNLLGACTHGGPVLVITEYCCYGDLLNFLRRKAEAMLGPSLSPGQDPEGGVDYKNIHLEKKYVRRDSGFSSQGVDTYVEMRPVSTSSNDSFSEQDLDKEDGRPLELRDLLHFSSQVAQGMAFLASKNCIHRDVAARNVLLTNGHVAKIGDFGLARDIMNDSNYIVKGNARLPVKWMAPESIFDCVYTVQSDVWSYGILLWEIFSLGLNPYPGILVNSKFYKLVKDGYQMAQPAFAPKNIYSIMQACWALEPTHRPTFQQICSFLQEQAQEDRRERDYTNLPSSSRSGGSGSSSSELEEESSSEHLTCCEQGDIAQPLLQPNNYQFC

The source made the active and inactive calls. The calls are words filed in the database; no cut-off is given here.

LIM domain kinase 1, sequence (P53667 whole entry, the tested form may be a part): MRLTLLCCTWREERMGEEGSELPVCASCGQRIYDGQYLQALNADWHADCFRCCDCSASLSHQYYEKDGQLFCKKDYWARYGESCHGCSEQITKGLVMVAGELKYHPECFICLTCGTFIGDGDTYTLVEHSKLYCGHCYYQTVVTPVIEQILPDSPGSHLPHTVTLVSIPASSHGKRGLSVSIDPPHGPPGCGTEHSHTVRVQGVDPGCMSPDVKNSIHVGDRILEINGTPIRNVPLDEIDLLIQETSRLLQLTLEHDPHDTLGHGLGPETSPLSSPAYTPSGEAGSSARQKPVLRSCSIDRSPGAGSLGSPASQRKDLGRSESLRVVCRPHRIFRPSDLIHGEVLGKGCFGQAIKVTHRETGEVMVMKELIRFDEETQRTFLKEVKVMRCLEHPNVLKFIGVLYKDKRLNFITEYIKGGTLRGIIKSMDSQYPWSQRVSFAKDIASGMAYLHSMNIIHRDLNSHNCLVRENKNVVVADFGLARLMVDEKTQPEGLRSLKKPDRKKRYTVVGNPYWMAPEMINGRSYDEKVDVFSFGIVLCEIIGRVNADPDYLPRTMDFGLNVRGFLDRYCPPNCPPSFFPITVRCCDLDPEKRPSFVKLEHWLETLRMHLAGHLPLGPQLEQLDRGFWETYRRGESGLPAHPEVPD
Serine/threonine-protein kinase Chk2, sequence (O96017 whole entry): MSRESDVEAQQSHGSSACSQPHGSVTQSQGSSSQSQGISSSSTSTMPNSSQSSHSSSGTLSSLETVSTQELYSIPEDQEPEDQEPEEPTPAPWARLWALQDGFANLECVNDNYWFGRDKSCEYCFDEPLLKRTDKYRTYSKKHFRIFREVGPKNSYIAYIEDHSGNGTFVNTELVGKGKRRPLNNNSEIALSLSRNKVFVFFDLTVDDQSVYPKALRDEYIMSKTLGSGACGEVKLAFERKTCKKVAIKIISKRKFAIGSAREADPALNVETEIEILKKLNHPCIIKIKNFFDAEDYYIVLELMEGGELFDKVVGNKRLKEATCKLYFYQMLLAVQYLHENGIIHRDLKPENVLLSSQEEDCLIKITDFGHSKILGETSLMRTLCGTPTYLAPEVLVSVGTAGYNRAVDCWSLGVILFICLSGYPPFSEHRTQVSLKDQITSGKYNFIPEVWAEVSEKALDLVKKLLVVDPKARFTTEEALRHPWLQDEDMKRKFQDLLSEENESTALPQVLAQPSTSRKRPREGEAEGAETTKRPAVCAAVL
Vascular endothelial growth factor receptor 3, sequence (P35916 whole entry, the tested form may be a part): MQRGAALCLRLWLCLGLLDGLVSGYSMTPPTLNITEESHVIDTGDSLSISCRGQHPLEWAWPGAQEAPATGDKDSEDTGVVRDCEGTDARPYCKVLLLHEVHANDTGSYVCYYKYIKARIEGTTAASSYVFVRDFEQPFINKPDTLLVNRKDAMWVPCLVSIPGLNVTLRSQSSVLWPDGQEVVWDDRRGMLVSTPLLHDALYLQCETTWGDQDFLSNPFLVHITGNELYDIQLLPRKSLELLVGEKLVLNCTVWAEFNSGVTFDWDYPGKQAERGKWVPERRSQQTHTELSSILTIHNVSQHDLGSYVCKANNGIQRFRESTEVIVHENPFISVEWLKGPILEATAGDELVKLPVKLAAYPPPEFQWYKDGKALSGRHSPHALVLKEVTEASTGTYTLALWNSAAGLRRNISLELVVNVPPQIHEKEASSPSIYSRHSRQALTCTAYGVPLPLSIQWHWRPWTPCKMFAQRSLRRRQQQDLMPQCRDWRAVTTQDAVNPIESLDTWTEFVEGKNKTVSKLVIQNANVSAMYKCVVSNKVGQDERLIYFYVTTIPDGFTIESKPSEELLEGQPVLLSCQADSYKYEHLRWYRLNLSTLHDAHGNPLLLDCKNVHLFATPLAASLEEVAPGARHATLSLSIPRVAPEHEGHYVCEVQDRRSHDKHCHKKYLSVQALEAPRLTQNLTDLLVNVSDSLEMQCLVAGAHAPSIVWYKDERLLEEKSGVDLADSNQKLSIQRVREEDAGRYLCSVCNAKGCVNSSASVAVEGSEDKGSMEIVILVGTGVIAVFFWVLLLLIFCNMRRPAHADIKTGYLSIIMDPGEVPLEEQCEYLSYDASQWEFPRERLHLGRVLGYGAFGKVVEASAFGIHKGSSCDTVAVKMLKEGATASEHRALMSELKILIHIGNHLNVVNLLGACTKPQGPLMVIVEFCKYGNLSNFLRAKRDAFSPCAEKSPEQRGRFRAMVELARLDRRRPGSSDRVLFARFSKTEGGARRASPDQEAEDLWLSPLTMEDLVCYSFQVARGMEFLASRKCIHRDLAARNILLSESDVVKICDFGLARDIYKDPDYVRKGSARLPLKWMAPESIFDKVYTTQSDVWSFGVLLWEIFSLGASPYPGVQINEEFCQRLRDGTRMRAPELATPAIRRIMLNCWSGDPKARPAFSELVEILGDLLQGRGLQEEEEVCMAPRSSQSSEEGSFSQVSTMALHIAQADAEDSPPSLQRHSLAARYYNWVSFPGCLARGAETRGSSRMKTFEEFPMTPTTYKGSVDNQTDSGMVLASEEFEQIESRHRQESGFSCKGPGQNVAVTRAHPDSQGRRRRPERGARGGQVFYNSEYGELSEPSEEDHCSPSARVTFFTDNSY

As to `Cc1ccc(C(=O)Nc2ccc(Nc3ccnc4[nH]c(=O)c5ccccc5c34)cc2)cc1`, the IC50 (as a rule, the concentration that inhibits the measured activity by half) came out at 3 nM in [1], 2 nM in data set [2] and 2390 nM in [3].
With `O=c1[nH]c2ncccc2c2ccccc12`, in data set [1], 5540 nM corresponded to half-maximal inhibition (IC50).
As for `CNc1ccc(Nc2ccnc3[nH]c(=O)c4ccccc4c23)cc1`, in data set [1], 471 nM corresponded to half-maximal inhibition (IC50).
Still for that read-out and setting: next, `Nc1ccnc2[nH]c(=O)c3ccccc3c12`: 3010 nM.
In the case of `O=C(Nc1ccc(Nc2ccnc3[nH]c(=O)c4ccccc4c23)cc1)c1ccc(F)c(F)c1`, the IC50 stood at 7 nM in data set [1], 0.8 nM in data set [2] and 409 nM in data set [3].
On the same counts, the results for `O=C(Nc1ccc(Nc2ccnc3[nH]c(=O)c4ccccc4c23)cc1)c1ccc(F)cc1` are 4 nM, 1 nM and 719 nM.
Regarding `O=C(Nc1ccc(Nc2ccnc3[nH]c(=O)c4ccccc4c23)cc1)c1ccccc1`, the IC50 in [4] amounted to 958 nM; in data set [6], 211 nM; in data set [7], 15 nM; in data set [8] it was 149 nM; in data set [9], 41 nM; in data set [10], 411 nM. Further, the IC50 came to 175 nM in data set [11]; 401 nM in [12]; 208 nM in data set [13]; 4 nM in data set [1]; 1 nM in data set [2]; 417 nM in [14]. Also, the IC50 in [3] is 329 nM; in [15], 36 nM; in data set [16], 819 nM. The solubility – broadly, the concentration that dissolves in the medium under given conditions – in data set [5] was under 1 µM.
On to `O=c1[nH]c2nccc(Cl)c2c2ccccc12`, for which the IC50 in data set [1] was found to be 3010 nM; in data set [2] it was 1440 nM.
Regarding `O=C(Nc1ccc(Nc2ccnc3[nH]c(=O)c4ccccc4c23)cc1)c1ccc(C(F)(F)F)cc1F`, the IC50 in data set [1] came out at 9 nM; in [3], 4990 nM.
Take `COc1cccc(F)c1C(=O)Nc1ccc(Nc2ccnc3[nH]c(=O)c4ccccc4c23)cc1`: the IC50 in data set [1] amounted to 3 nM; in [2] it was 1 nM; in data set [3], 1190 nM.
With `O=C(Nc1ccc(Nc2ccnc3[nH]c(=O)c4ccccc4c23)nc1)c1ccccc1`, the values for the IC50 in data set [1] and in data set [2] were 615 nM and 79 nM, respectively.
In the case of `O=C(Nc1ccc(Nc2ccnc3[nH]c(=O)c4ccccc4c23)cc1)c1ccc(F)cc1F`, the IC50 is 2 nM in data set [1], 1 nM in [2] and 374 nM in data set [3].
As for `O=C(Nc1ccc(Nc2ccnc3[nH]c(=O)c4ccccc4c23)cc1)c1ccccc1F`, the IC50 worked out at 9 nM in [1], 2 nM in data set [2] and 6250 nM in data set [3].
In the same order, the values of `O=C(Nc1ccc(Nc2ccnc3[nH]c(=O)c4ccccc4c23)cc1)c1cccc(F)c1F` are 2 nM, 0.5 nM and 209 nM.
Take `O=C(Nc1ccc(Nc2ccnc3[nH]c(=O)c4ccccc4c23)cc1)c1cc(F)cc(C(F)(F)F)c1`: the IC50 in data set [1] was 9 nM; in data set [3], 211 nM.
With `O=C(Nc1ccc(Nc2ccnc3[nH]c(=O)c4ccccc4c23)cc1)c1cccc(C(F)(F)F)c1F`, the values for the IC50 in data set [1], in data set [2] and in data set [3] were 7 nM, 1 nM and 253 nM, respectively.
Regarding `O=C(Nc1ccc(Nc2ccnc3[nH]c(=O)c4ccccc4c23)cn1)c1ccccc1`, the IC50 in data set [1] was 70 nM; in data set [2], 13 nM.
For the compound `Nc1ccc(Nc2ccnc3[nH]c(=O)c4ccccc4c23)cc1`, the IC50 in [1] stood at 1150 nM; in data set [2], 174 nM.
As for `O=C(Nc1ccc(Nc2ccnc3[nH]c(=O)c4ccccc4c23)cc1)c1ccc(C(F)(F)F)cc1`, the IC50 in data set [1] is 27 nM; in [2] it was 6 nM; in [3] it was 2710 nM.
For the compound `O=C(Nc1ncc(Nc2ccnc3[nH]c(=O)c4ccccc4c23)cn1)c1ccccc1`, the IC50 in data set [1] is 88 nM; in data set [2], 21 nM.
As for `COc1ccccc1C(=O)Nc1ccc(Nc2ccnc3[nH]c(=O)c4ccccc4c23)cc1`, the IC50 in data set [1] was 7 nM; in data set [2] it was 2 nM; in data set [3], 2220 nM.
With `O=C(Nc1ccc(Nc2ccnc3[nH]c(=O)c4ccccc4c23)cc1)c1ccccc1C(F)(F)F`, the IC50 in [1] was determined as 4 nM; in [2], 1 nM; in [3], 405 nM.
On the same counts, the results for `O=C(Nc1ccc(Nc2ccnc3[nH]c(=O)c4ccccc4c23)cc1)c1cc(F)cc(F)c1` are 7 nM, 0.7 nM and 823 nM.
In the same order, the values of `O=C(Nc1ccc(Nc2ccnc3[nH]c(=O)c4ccccc4c23)cc1)c1c(F)cccc1F` are 5 nM, 0.6 nM and 293 nM.
On to `O=C(Nc1ccc(Nc2ccnc3[nH]c(=O)c4ccccc4c23)cc1)c1ccc(F)cc1C(F)(F)F`, for which the result in data set [17] was Active. The AUC – broadly, concentration integrated over time – in [18] was 1440 ng·h/mL; in data set [21] it was 4190 ng·h/mL. Moreover, the figures for the half-life in data set [19] and in [28] were 1.36 h and 2.74 h, respectively. The inhibition in vivo (commonly the change of the read-out against control, counted positive when it falls) at 300 mg/kg in [20] is 40%. The IC50 came to 706 nM in data set [7]; 161 nM in data set [9]; 863 nM in data set [22]; 52 nM in [13]; 0.3 nM in data set [1]; 959 nM in data set [29]. The IC50 in data set [2] came to 0.4 nM; in [14], 867 nM; in data set [3], 170 nM; in [15], 18 nM; in data set [30], 575 nM. Further, the bioavailability – broadly, the share of a dose that reaches the circulation, judged against a reference dose that is usually intravenous – in [23] turned out to be 41%. Also, the Cmax (in general, the highest concentration seen after dosing) was 321 ng/mL in data set [24] and 3930 ng/mL in [25]. Also, the Vd in data set [26] is 1.48 L/kg. The clearance (usually the volume of plasma or blood freed of the substance per unit of time) in data set [27] is 19.7 mL/min/kg.
As for `O=C(Nc1ccc(Nc2ccnc3[nH]c(=O)c4ccccc4c23)cc1)c1cccc(F)c1`, the IC50 in data set [1] turned out to be 7 nM; in data set [2], 1 nM; in data set [3], 919 nM.
Compound `O=c1[nH]c2nccc(Nc3ccccc3)c2c2ccccc12` displayed an IC50 in [1] of 1030 nM.

(Values after ChEMBL document CHEMBL2380198, “SAR and evaluation of novel 5H-benzo[c][1,8]naphthyridin-6-one analogs as Aurora kinase inhibitors” (Bioorg Med Chem Lett, 2013).)
